Assay results from patent publication US20240309015A1, “Methods for the Treatment of Fibrotic Disease” (SHY Therapeutics, LLC, priority 2021, published 2024).

Experiments:
KRas G12C mutant = assay: Ras GTP Binding Domain Inhibition Assay, KRas G12C mutant; conditions: at 20 μM; for KRas G12C mutant + SOS: % inh.: with SOS; for KRas G12C mutant: % inh.: without SOS
In short: (§1)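 His-tagged GTPases, 10-30 μg/mL in Tris-HCl buffer (pH 7.4 or 7.0, MgCl2, DTT), were immobilised on nickel-coated wells overnight at 4° C. Compounds were added at 20 μM or as serial dilutions for IC50 in 1% DMSO for 3 h at room temperature, ±Sos(556-1049) in the final hour. Bound Cy3/Cy5-GTP (100 nM, 45 min) was read after washing.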

Smad2/3 phosphorylation = assay: Phospho-Smad2/3 Inhibition Assay in PANC-1; type: cell-based; conditions: Homo sapiens; 10 μM compound, 3 h; TGF-b1 stimulated PANC-1; western blot; read-out: % inh of Smad2/3 phosphorylation in PANC-1
Procedure: Cell lines: Human tumor-derived pancreatic cancer cell line Panc-1 and mouse muscle myoblast C2C12 were purchased from American Type Culture Collection and grown in complete DMEM-High Glucose, supplemented with penicillin (100 U/mL), streptomycin (100 μg/mL), and 10% heat-inactivated FBS at 37° C. in a humidified incubator with 5% CO2.
Method: Cells were plated at 350000 cells/well density in a 12-well plate, allowed 3 hours to adhere to the plate, then starved in the appropriate medium in the presence of 0.5% FBS overnight. The small molecules to be tested were added to the cells in the final concentration of 10 μM in the presence of 0.3% DMSO for 3 hours incubation at 37° C. For IC50 value determination, serial dilutions of compounds were added to cells under the same conditions. Next, Panc-1 cells were stimulated with 10 ng/ml TGF-b1 for 1 hour, and C2C12 cells were stimulated with 10 ng/ml TGF-b1 for 20 minutes (recombinant human TGF-b1, R&D Systems). After stimulation cells were lysed with lysis buffer containing 1% Triton X-100, EDTA, and Halt™ Protease & Phosphatase Inhibitor Cocktail (Thermo Scientific). Protein concentration was assessed by BCA protein assay (Thermo Scientific). Phosphorylation level of Smad2/Smad3 was determined by western blot.
Western blot protocol: Equal amounts of protein (15-50 μg) were separated by SDS-PAGE and transferred to nitrocellulose membranes (Invitrogen by Thermo Fisher Scientific). The membrane was stained with Ponceau S Stain (Boston BioProducts) to verify uniform protein loading. Membranes were blocked with 10% milk and phosphorylation levels of Smad2/Smad3 were assessed by incubating overnight at 4° C. with the following antibodies: Phospho-Smad2 (Ser465/467) and Phosph-Smad3 (Ser423/425), both from Cell Signaling Technology. Then the membranes were incubated with HRP-conjugated secondary antibody (Jackson Immunoresearch, West Grove, PA). Bands were incubated in Amersham ECL Prime Western Blotting Detection Reagent (GE Healthcare) and visualized using the ChemiDoc MP imaging system (Bio-Rad).

KRas wild type = assay: Ras GTP Binding Domain Inhibition Assay, KRas wild type; conditions: at 20 μM; for KRas wild type + SOS: % inh.: with SOS; for KRas wild type: % inh.: without SOS
In short: as §1

TNFα = assay: Mouse TNF Alpha Quantification Assay (LPS-stimulated RAW 264.7); type: cell-based; parameters: dose or concentration left out as unconfirmed; conditions: RAW264.7, ELISA, read-out: TNFα: % inh.
KRas G12D mutant = assay: Ras GTP Binding Domain Inhibition Assay, KRas G12D mutant; conditions: at 20 μM; for KRas G12D mutant + SOS: % inh.: with SOS; for KRas G12D mutant: % inh.: without SOS
In short: as §1

Rho-A = assay: Ras GTP Binding Domain Inhibition Assay, Rho-A; conditions: at 20 μM; without SOS
In short: as §1

IL-6 = assay: Mouse IL6 Quantification Assay (LPS-stimulated RAW 264.7); type: cell-based; parameters: dose or concentration left out as unconfirmed; conditions: RAW264.7, ELISA, read-out: IL-6: % inh.

SMILES | KRas G12C mutant + SOS: % inh. (KRas G12C mutant) | KRas G12C mutant: % inh. (KRas G12C mutant) | inhibition at 10 µM (Smad2/3 phosphorylation) [%] | KRas wild type + SOS: % inh. (KRas wild type) | KRas wild type: % inh. (KRas wild type) | inhibition (TNFα) [%] | KRas G12D mutant + SOS: % inh. (KRas G12D mutant; Table 7) | KRas G12D mutant + SOS: % inh. (KRas G12D mutant; Table 8) | KRas G12D mutant: % inh. (KRas G12D mutant; Table 7) | KRas G12D mutant: % inh. (KRas G12D mutant; Table 8) | Rho-A: % inh. (Rho-A) | inhibition (IL-6) [%]
Cc1c(-c2ccn(C(C)C)n2)sc2nc(-c3nccn3C)nc(NCC3CCCO3)c12 (racemic) [Compound 26, rac-6-(1-Isopropyl-1H-pyrazol-3-yl)-5-methyl-2-(1-methyl-1H-imidazol-2-yl)-N-((tetrahydrofuran-2-yl)methyl)thieno[2,3-d]pyrimidin-4-amine] | D (D = 76-100% inhibition) | D (D = 76-100% inhibition) | 0 | D (D = 76-100% inhibition) | D (D = 76-100% inhibition) | 0 | C (C = 46-75% inhibition) | C (C = 46-75% inhibition) | D (D = 76-100% inhibition) | D (D = 76-100% inhibition) | D (D = 76-100% inhibition) | 76 to 100
COCCn1ccc(-c2sc3nc(-c4nccn4C)nc(NC[C@H]4CC[C@H]4COC)c3c2C)n1 (racemic) [Compound 38, rac-6-(1-(2-Methoxyethyl)-1H-pyrazol-3-yl)-N-(((1S,2R)-2-(methoxymethyl)cyclobutyl)methyl)-5-methyl-2-(1-methyl-1H-imidazol-2-yl)thieno[2,3-d]pyrimidin-4-amine] | D (D = 76-100% inhibition) | C (C = 46-75% inhibition) | 46 to 75 | D (D = 76-100% inhibition) | C (C = 46-75% inhibition) | 76 to 100 | D (D = 76-100% inhibition) | D (D = 76-100% inhibition) | B (B = 26-45% inhibition) | B (B = 26-45% inhibition) | B (B = 26-45% inhibition) | 76 to 100
COc1cccc(-c2sc3nc(-c4nccn4C)nc(N[C@@H]4CC[C@@H](OC)C4)c3c2-c2ccccc2)c1F (racemic) [Compound 41, 6-(2-Fluoro-3-methoxyphenyl)-N-((1R,3R)-3-methoxycyclopentyl)-2-(1-methyl-1H-imidazol-2-yl)-5-phenylthieno[2,3-d]pyrimidin-4-amine] | D (D = 76-100% inhibition) | B (B = 26-45% inhibition) | 76 to 100 | D (D = 76-100% inhibition) | B (B = 26-45% inhibition) | 76 to 100 | C (C = 46-75% inhibition) | C (C = 46-75% inhibition) | A (A = 1-25% inhibition) | A (A = 1-25% inhibition) | 0 (0 = 0% inhibition) | 76 to 100
COc1cccc(Nc2nc(-c3nccn3C)nc3sc(-c4ccn(C(C)C)n4)c(C)c23)c1 [Compound 17, 6-(1-Isopropyl-1H-pyrazol-3-yl)-N-(3-methoxyphenyl)-5-methyl-2-(1-methyl-1H-imidazol-2-yl)thieno[2,3-d]pyrimidin-4-amine] | D (D = 76-100% inhibition) | C (C = 46-75% inhibition) | 46 to 75 | C (C = 46-75% inhibition) | B (B = 26-45% inhibition) | 76 to 100 | C (C = 46-75% inhibition) | C (C = 46-75% inhibition) | C (C = 46-75% inhibition) | C (C = 46-75% inhibition) | C (C = 46-75% inhibition) | 76 to 100
COc1cc(Nc2nc(-c3nccn3C)nc3sc(-c4ccn(C(C)C)n4)c(C)c23)ncn1 [Compound 19, 6-(1-Isopropyl-1H-pyrazol-3-yl)-N-(6-methoxypyrimidin-4-yl)-5-methyl-2-(1-methyl-1H-imidazol-2-yl)thieno[2,3-d]pyrimidin-4-amine] | D (D = 76-100% inhibition) | C (C = 46-75% inhibition) | 76 to 100 | D (D = 76-100% inhibition) | D (D = 76-100% inhibition) | 76 to 100 | C (C = 46-75% inhibition) | C (C = 46-75% inhibition) | B (B = 26-45% inhibition) | B (B = 26-45% inhibition) | D (D = 76-100% inhibition) | 76 to 100
Cc1c(-c2ccn(C(C)C)n2)sc2nc(-c3nccn3C)nc(NCCN3CCOCC3)c12 [Compound 22, 6-(1-Isopropyl-1H-pyrazol-3-yl)-5-methyl-2-(1-methyl-1H-imidazol-2-yl)-N-(2-morpholinoethyl)thieno[2,3-d]pyrimidin-4-amine] | D (D = 76-100% inhibition) | D (D = 76-100% inhibition) | 0 | D (D = 76-100% inhibition) | D (D = 76-100% inhibition) | 1 to 25 | D (D = 76-100% inhibition) | D (D = 76-100% inhibition) | D (D = 76-100% inhibition) | D (D = 76-100% inhibition) | D (D = 76-100% inhibition) | 76 to 100
Cc1c(-c2ccn(C(C)C)n2)sc2nc(-c3nccn3C)nc(NCCN3CCS(=O)(=O)CC3)c12 [Compound 23, 4-(2-((6-(1-Isopropyl-1H-pyrazol-3-yl)-5-methyl-2-(1-methyl-1H-imidazol-2-yl)thieno[2,3-d]pyrimidin-4-yl)amino)ethyl)thiomorpholine 1,1-dioxide] | D (D = 76-100% inhibition) | C (C = 46-75% inhibition) | 0 | D (D = 76-100% inhibition) | D (D = 76-100% inhibition) | 0 | D (D = 76-100% inhibition) | D (D = 76-100% inhibition) | D (D = 76-100% inhibition) | D (D = 76-100% inhibition) | C (C = 46-75% inhibition) | 46 to 75
